As a reminder, the logP is the decadic logarithm of the partition coefficient of the neutral form, usually between octanol and water. High values mean higher lipophilicity, low ones lower lipophilicity.

Compound `O=C(O)c1ccc(Cl)c(Cl)c1` yielded a logP of 3.25.

The compound `CN(C)c1ccc(C(=O)O)cc1` gave a logP of 1.28. As for `O=C(O)c1cc(Cl)ccc1Cl`, the figure is 2.82; as for `CCCOc1ccc(C(=O)O)cc1`, 3.09; as for `CC(=O)Nc1cccc(C(=O)O)c1`, 1.32. The compound `[N-]=[N+]=Nc1ccc(C(=O)O)cc1` had a logP of 2.54. As for `CCCc1ccc(C(=O)O)cc1`, the figure is 3.42. Under `CCc1ccc(C(=O)O)cc1` stands 2.89; under `O=Cc1ccc(C(=O)O)cc1`, 1.76. In turn, `NCc1ccc(C(=O)O)cc1` had a logP of 1.03.

Values taken from the OPERA property sets (Mansouri et al. 2018).
